# Assays:
# Assay in all cases: relative viability (nuclei count vs DMSO), 5 days (fraction); higher = more cells survive
# DM3189 + Foretinib = compound: C1CN(CCN1)C2=CC=C(C=C2)C3=CN4C(=C(C=N4)C5=CC=NC6=CC=CC=C56)N=C3 [DM3189] + COc1cc2c(Oc3ccc(NC(=O)C4(C(=O)Nc5ccc(F)cc5)CC4)cc3F)ccnc2cc1OCCCN1CCOCC1 [Foretinib] (partner 0.25 µM)
# Summary of the method: (§1)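 One day after seeding in 1536-well plates, lung cancer cell lines were dosed by pin tool. Dosing was either single-drug or a fixed anchor-drug dose plus five library-drug doses (not always all listed) in √10 steps. After 5 days, nuclei were stained in one fix-and-stain step and counted on 4× images, and relative viability is the nuclei count of treated wells over that of vehicle wells, given as the median of duplicate plates.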
# DM3189 + OSI-027 = compound: C1CN(CCN1)C2=CC=C(C=C2)C3=CN4C(=C(C=N4)C5=CC=NC6=CC=CC=C56)N=C3 [DM3189] + COc1cccc2cc(-c3nc([C@H]4CC[C@H](C(=O)O)CC4)n4ncnc(N)c34)[nH]c12 [OSI-027] (partner 0.5 µM)
# Summary of the method: as §1
# DM3189 + Tozasertib = compound: C1CN(CCN1)C2=CC=C(C=C2)C3=CN4C(=C(C=N4)C5=CC=NC6=CC=CC=C56)N=C3 [DM3189] + Cc1cc(Nc2cc(N3CCN(C)CC3)nc(Sc3ccc(NC(=O)C4CC4)cc3)n2)n[nH]1 [Tozasertib] (partner 0.1 µM)
# Summary of the method: as §1
# DM3189 + Navitoclax = compound: C1CN(CCN1)C2=CC=C(C=C2)C3=CN4C(=C(C=N4)C5=CC=NC6=CC=CC=C56)N=C3 [DM3189] + CC1(C)CCC(c2ccc(Cl)cc2)=C(CN2CCN(c3ccc(C(=O)NS(=O)(=O)c4ccc(N[C@H](CCN5CCOCC5)CSc5ccccc5)c(S(=O)(=O)C(F)(F)F)c4)cc3)CC2)C1 [Navitoclax] (partner 0.5 µM)
# Summary of the method: as §1
# DM3189 + Pemetrexed = compound: C1CN(CCN1)C2=CC=C(C=C2)C3=CN4C(=C(C=N4)C5=CC=NC6=CC=CC=C56)N=C3 [DM3189] + Nc1nc2[nH]cc(CCc3ccc(C(=O)N[C@@H](CCC(=O)O)C(=O)O)cc3)c2c(=O)[nH]1 [Pemetrexed] (partner 0.2 µM)
# Summary of the method: as §1
Cell Line,relative viability (DM3189 + Foretinib; first compound 0.08 µM),relative viability (DM3189 + Foretinib; first compound 0.253 µM),relative viability (DM3189 + Foretinib; first compound 0.8 µM),relative viability (DM3189 + Foretinib; first compound 2.53 µM),relative viability (DM3189 + OSI-027; first compound 0.08 µM),relative viability (DM3189 + OSI-027; first compound 0.253 µM),relative viability (DM3189 + OSI-027; first compound 0.8 µM),relative viability (DM3189 + OSI-027; first compound 2.53 µM),relative viability (DM3189 + Tozasertib; first compound 0.08 µM),relative viability (DM3189 + Tozasertib; first compound 0.253 µM),relative viability (DM3189 + Tozasertib; first compound 0.8 µM),relative viability (DM3189 + Tozasertib; first compound 2.53 µM),relative viability (DM3189 + Navitoclax; first compound 0.08 µM),relative viability (DM3189 + Navitoclax; first compound 0.253 µM),relative viability (DM3189 + Navitoclax; first compound 0.8 µM),relative viability (DM3189 + Navitoclax; first compound 2.53 µM),relative viability (DM3189 + Pemetrexed; first compound 0.08 µM),relative viability (DM3189 + Pemetrexed; first compound 0.253 µM),relative viability (DM3189 + Pemetrexed; first compound 0.8 µM),relative viability (DM3189 + Pemetrexed; first compound 2.53 µM)
201T,1.01,1.03,0.73,1.27,0.88,0.763,0.512,0.747,0.998,0.913,1.02,0.781,1.17,1.21,1.18,1.23,0.347,0.322,0.279,0.331
A549,0.989,0.95,0.998,0.976,,,,,,,,,1.23,1.27,1.28,1.3,,,,
A-427,1.09,1.23,1.04,1.22,0.59,0.377,0.403,0.461,0.191,0.212,0.204,0.216,0.937,0.936,0.893,1.13,1.17,0.897,0.954,1
ABC-1,1.14,1.18,1.08,0.906,0.603,0.353,0.492,0.497,0.192,0.134,0.165,0.175,,,,,,,,
BEN,0.79,0.582,0.533,0.734,0.389,0.323,0.315,0.309,0.416,0.465,0.483,0.444,0.448,0.0733,0.0662,0.0697,0.985,0.72,0.776,0.796
CAL-12T,1.2,1.07,1.13,1.12,0.829,0.629,0.869,1,0.318,0.234,0.327,0.403,1.16,1.09,1.25,1.35,1.2,1.06,1.09,0.921
COR-L23,1.12,0.844,0.828,0.993,0.887,0.715,0.576,0.625,0.19,0.196,0.147,0.187,1.09,0.961,0.893,1,0.181,0.179,0.174,0.21
COR-L 105,1.22,1.23,1.06,1.17,1.21,0.928,0.789,0.615,0.434,0.371,0.32,0.358,0.861,0.675,0.729,0.816,1.13,1.22,1.26,1.13
ChaGo-K-1,1.07,0.903,0.858,0.976,0.594,0.607,0.383,0.589,0.235,0.228,0.222,0.233,1.22,0.971,1.1,0.825,0.255,0.266,0.261,0.264
EKVX,0.892,0.82,0.539,0.803,0.769,0.511,0.729,0.623,0.44,0.407,0.449,0.352,0.816,0.899,0.9,1.07,0.499,,0.302,0.368
EMC-BAC-2,0.981,0.966,0.938,1.18,0.403,0.341,0.359,0.418,0.302,0.283,0.254,0.323,1.13,1.14,1.13,1.02,0.47,0.395,0.406,0.486
EPLC-272H,0.677,0.67,0.783,0.59,0.356,0.261,0.238,0.254,0.418,0.252,0.235,0.253,1.25,1.07,1.11,1.08,0.275,0.318,0.338,0.276
H3255,1.13,0.936,0.764,0.85,0.875,0.541,0.625,0.611,0.271,0.604,0.715,0.762,0.685,0.577,0.559,0.5,0.682,0.537,0.555,0.559
HARA,0.979,0.454,0.87,1.09,0.713,0.525,0.292,0.539,0.0946,0.0943,0.0953,0.0845,1.13,1.09,1.08,1.21,0.239,0.205,0.227,0.232
HCC-15,1.16,0.962,1,0.927,0.757,0.599,0.524,0.673,0.246,0.44,0.35,0.375,0.687,0.675,0.646,0.735,0.219,0.208,0.207,0.211
HCC-44,,,,,0.631,0.482,0.373,0.596,0.999,0.912,0.727,0.954,1.12,1.11,0.813,1.44,0.606,0.602,0.581,0.622
HCC-78,0.549,0.534,0.529,0.435,0.383,0.35,0.371,0.358,0.263,0.464,0.411,0.465,0.877,0.725,,0.976,0.918,0.918,0.848,0.927
